From patent publication US10730886B2, “Compound having effect of inhibiting platelet aggregation and salt thereof, and composition for preventing or treating thrombotic diseases, containing same” (SHIN POONG PHARMACEUTICAL CO., LTD., priority 2015, dated 2020)

Assays:
[1] = system: Human Washed Platelets (WP); experiment: Shear stress-induced platelet aggregation inhibition in human washed platelets (WP); assay type: cell-based; details: for inhibited shear stress-induced platelet aggregation in WP: 10, 25, 50 μM; for inhibition at 10 µM / inhibition at 25 µM / inhibition at 50 µM: Platelet, human WP, read-out: Degree of inhibition (%, Mean ± SEM)
Description: 1-2. Measurement of Platelet Aggregation Inhibitory Effect Using Human Washed Platelets (WP)
To separate human washed platelets (WP), blood was collected from the veins of healthy males using acid-citrate-dextrose (ACD) as an anticoagulant. At the time of blood collection, platelet activation was inhibited by treatment with 1 μM of prostaglandin E1 (PGE1). The collected blood was centrifuged at 150 g for 15 minutes to obtain PRP from the supernatant, which was centrifuged at 500 g for 10 minutes to obtain platelets. The platelets were suspended in and washed with a washing buffer (134 mM NaCl, 2.9 mM KCl, 1.0 mM MgCl2.6H2O, 10.0 mM HEPES, 5.0 mM dextrose, 12.0 mM NaHCO3, 0.34 mM Na2HPO4, 10% ACD, 0.3% bovine serum albumin, 1 μM PGE1, pH 7.4), and then re-centrifuged at 400 g for 10 minutes. The platelets thus obtained were suspended in the suspension buffer. The number of platelets in WP were counted using a hemacytometer. The platelets were diluted with the suspension buffer so as to include 3×10^8 platelets per 1 ml, and CaCl2 was added to give a final concentration of 2 mM and then used in the experiments. vWF was added to WP to give a final concentration of 10 μg/ml. WP was put on a cone-plate viscometer, and shear stress was applied to the WP at 37° C. for 3 minutes at a shear rate of 10,800 s^−1. In order to evaluate efficacy of candidate substances, prior to the induction of platelet aggregation, WP was treated with 10, 25, and 50 μM of candidate substances and incubated at 37° C. for 3 minutes using a thermomixer. After applying the shear stress, 20 μl of WP was fixed in 280 μl of the suspension buffer containing 0.5% glutaraldehyde. Then, the number of single platelets in the suspension was counted using a hemacytometer. The degree of inhibition by the candidate substance was calculated according to formula (1). No shear stress-applied group served as control, and only shear stress-applied group served as a positive control.

human platelets = experiment: Cytotoxicity in human platelets (LDH leakage); assay type: cell-based; details: 3 min
Description: 5-2. Evaluation of Cytotoxicity of Candidate Substances Using Human Platelets
Leakage of lactate dehydrogenase (LDH) from the platelets was measured by a spectro-photometry method. 1.2 μl of the test substance was added to 598.8 μl of PRP, and the mixture was reacted at 37° C. for 3 minutes using a thermomixer. After the reaction, 100 μl of the sample was centrifuged at 12,000 g for 2 minutes, and 80 μl of the supernatant was taken and refrigerated until evaluation. The evaluation was performed within 24 hours. […] 25 μl of the sample was added to 1 ml of a pre-warmed Tris-EDTA NADH solution (56 mM Tris(hydroxymethyl) aminomethane, 5.6 mM EDTA, 0.17 mM β-NADH pH 7.4) and reacted for 5 minutes at 37° C. Then, 100 μl of a 14 mM pyruvate solution previously heated at 37° C. was added to the reaction mixture, and absorbance was immediately measured at a wavelength of 339 nm for 1 minute using a spectrophotometer (UV-Vis spectrophotometer, UV-2201, Shidamadzu, Japan). The rate of decrease in absorbance means the rate of oxidation of NADH, indicating the activity of LDH liberated from platelets. Total activity of LDH was measured by inducing lysis of platelets with 0.3% Triton X-100. The basal level of LDH (Control) was measured in plasma. The activity of each sample was measured as a percentage of the total activity of LDH.

[2] = system: human vascular endothelial cells (EA.hy926); experiment: Cytotoxicity in EA.hy926 cell line (MTT assay); assay type: cell-based; details: 24 hours
Description: 5-1. Evaluation of Cytotoxicity of Candidate Substances Using EA.hy926 Cell Line
Experiments were conducted to determine the cytotoxicity of candidate substances in human vascular endothelial cells (EA.hy926). EA.hy926 was passaged in DMEM (Dulbecco's […]) supplemented with 10% fetal bovine serum (FBS) at 5% CO2/37° C. The cells were cultured in a 96 well plate at 1×10^4 cells/well for 48 hours, washed twice with DMEM and then cultured for 24 hours. Candidate substances were prepared at final concentrations of 25 and 100 μM, applied to the wells at 200 μl per well and cultured for 24 hours. MTT assay was used to measure the absorbance at 570 nm after colorization in violet.

[3] = system: human liver cells (HepG2); experiment: Cytotoxicity in human liver cells HepG2 (WST-1); assay type: cell-based; details: HepG2, 250 μM, 18 hours
Description: 5-3. Evaluation of Cytotoxicity of Candidate Substances Using Human Liver Cells
Experiments were conducted to evaluate cytotoxicity in human liver cells (HepG2). HepG2 cells, which are human liver carcinoma cell lines, were cultured in DMEM (Dulbecco's minimum essential medium) supplemented with 10% FBS (fetal bovine serum) and 1% Penicillin/Streptomycin at 37° C. and 5% CO2. The cells were cultured in a 48 well plate at 4×10^4 cells/well for 24 hours and then used in the experiments. The HepG2 cells were treated with the candidate substances (250 μM) for 18 hours, and then the medium was removed and WST-1 was added, followed by shading for 3 hours for reaction. After 3 hours, the supernatant was taken and absorbance was measured at 450 nm. Cell viability was calculated by comparing the absorbance measured after adding WST-1 to HepG2 cells not treated with the candidate substances. Acetaminophen (40 mM) was used as a control.

Sprague-Dawley rats = experiment: Bleeding side effect (tail bleeding time) after single oral administration; assay type: in vivo; details: rat, tail cut 1 hour after administration
Description: Male Sprague-Dawley rats (250 to 300 g) were fasted overnight and then were orally administered with the candidate substances at each concentration. After 1 hour, the rats were anesthetized by intraperitoneal injection of urethane (1.25 g/kg). The 3 mm portion of the tail tip of the rats was cut and carefully wiped every 30 seconds. Bleeding time was measured in […] until no more blood was drawn, and when the bleeding lasted longer than 30 minutes, the bleeding time was recorded as 30 minutes.

## O=C(c1ccc(O)c(O)c1)N1CCc2sccc2C1 [Example 1, (6,7-Dihydrothieno[3,2-c]pyridin-5(4H)-yl)(3,4-dihydroxyphenyl)methanone]
[1]
  inhibited shear stress-induced platelet aggregation in WP: in a dose-dependent manner
  inhibition at 10 µM: 4 ± 3.5%
  inhibition at 25 µM: 23 ± 1.2%
  inhibition at 50 µM: 27 ± 1.7%
Human platelets; 25 μM
  LDH leakage (%, Mean ± SEM): 2.7 ± 0.5%
Human platelets; 100 μM
  LDH leakage (%, Mean ± SEM): 2.4 ± 0.2%
Human platelets; 250 μM
  LDH leakage (%, Mean ± SEM): 2.7 ± 0.5%
[2]; EA.hy926, 25 μM
  Cell viability (%): 92.2 ± 2.8%
[2]; EA.hy926, 100 μM
  Cell viability (%): 94.2 ± 1.9%
[3]
  Cell vaibility (%): 91.7 ± 2.0%
Sprague-Dawley rats; 25 μM (so in the source)
  Bleeding time: 6.0 ± 0.9 min
Sprague-Dawley rats; 100 μM (so in the source)
  Bleeding time: 6.5 ± 0.9 min

## COc1cc(C(=O)N2CCc3sccc3C2)ccc1O [Example 12, (6,7-Dihydrothieno[3,2-c]pyridin-5(4H)-yl)(4-hydroxy-3-methoxyphenyl)methanone]
[1]
  inhibited shear stress-induced platelet aggregation in WP: in a dose-dependent manner
  inhibition at 10 µM: 10 ± 2.1%
  inhibition at 25 µM: 30 ± 0.9%
  inhibition at 50 µM: 33 ± 2.1%
Human platelets; 25 μM
  LDH leakage (%, Mean ± SEM): 2.3 ± 0.5%
Human platelets; 100 μM
  LDH leakage (%, Mean ± SEM): 3.6 ± 0.1%
Human platelets; 250 μM
  LDH leakage (%, Mean ± SEM): 3.6 ± 0.8%
[2]; EA.hy926, 25 μM
  Cell viability (%): 95.1 ± 1.9%
[2]; EA.hy926, 100 μM
  Cell viability (%): 97.2 ± 2.8%
[3]
  Cell vaibility (%): 89.0 ± 2.3%
Sprague-Dawley rats; 25 μM (so in the source)
  Bleeding time: 6.3 ± 0.6 min
Sprague-Dawley rats; 100 μM (so in the source)
  Bleeding time: 6.5 ± 0.3 min

## CCc1occc(=O)c1OC(=O)c1ccc(O)c(OC)c1 [Example 13, 2-Ethyl-4-oxo-4H-pyran-3-yl 4-hydroxy-3-methoxybenzoate]
[1]
  inhibited shear stress-induced platelet aggregation in WP: in a dose-dependent manner
  inhibition at 10 µM: 12 ± 3.8%
  inhibition at 25 µM: 29 ± 4.1%
  inhibition at 50 µM: 34 ± 2.7%
Human platelets; 25 μM
  LDH leakage (%, Mean ± SEM): 2.2 ± 0.4%
Human platelets; 100 μM
  LDH leakage (%, Mean ± SEM): 4.0 ± 1.2%
Human platelets; 250 μM
  LDH leakage (%, Mean ± SEM): 4.0 ± 0.3%
[2]; EA.hy926, 25 μM
  Cell viability (%): 100.1 ± 1.9%
[2]; EA.hy926, 100 μM
  Cell viability (%): 94.2 ± 2.0%
[3]
  Cell vaibility (%): 98.3 ± 5.5%
Sprague-Dawley rats; 25 μM (so in the source)
  Bleeding time: 6.5 ± 0.6 min
Sprague-Dawley rats; 100 μM (so in the source)
  Bleeding time: 7.2 ± 0.3 min

## COc1cc(C(=O)Oc2c(C)occc2=O)ccc1O [Example 14, 2-Methyl-4-oxo-4H-pyran-3-yl 4-hydroxy-3-methoxybenzoate]
[1]
  inhibited shear stress-induced platelet aggregation in WP: in a dose-dependent manner
  inhibition at 10 µM: 8 ± 1.5%
  inhibition at 25 µM: 27 ± 2.3%
  inhibition at 50 µM: 39 ± 0.6%
Human platelets; 25 μM
  LDH leakage (%, Mean ± SEM): 4.8 ± 0.2%
Human platelets; 100 μM
  LDH leakage (%, Mean ± SEM): 5.6 ± 0.9%
Human platelets; 250 μM
  LDH leakage (%, Mean ± SEM): 4.2 ± 0.9%
[2]; EA.hy926, 25 μM
  Cell viability (%): 99.6 ± 1.7%
[2]; EA.hy926, 100 μM
  Cell viability (%): 99.5 ± 1.6%
[3]
  Cell vaibility (%): 87.3 ± 2.7%
Sprague-Dawley rats; 25 μM (so in the source)
  Bleeding time: 6.7 ± 0.9 min
Sprague-Dawley rats; 100 μM (so in the source)
  Bleeding time: 6.3 ± 0.6 min

## COc1ccc(NC(=O)c2ccc(O)c(OC)c2)c([N+](=O)[O-])c1 [Example 15, 4-Hydroxy-3-methoxy-N-(4-methoxy-2-nitrophenyl)benzamide]
[1]
  inhibited shear stress-induced platelet aggregation in WP: in a dose-dependent manner
  inhibition at 10 µM: 14 ± 2.5%
  inhibition at 25 µM: 26 ± 4%
  inhibition at 50 µM: 36 ± 3.2%
Human platelets; 25 μM
  LDH leakage (%, Mean ± SEM): 2.7 ± 0.1%
Human platelets; 100 μM
  LDH leakage (%, Mean ± SEM): 3.2 ± 0.4%
Human platelets; 250 μM
  LDH leakage (%, Mean ± SEM): 3.1 ± 1.3%
[2]; EA.hy926, 25 μM
  Cell viability (%): 100.8 ± 2.5%
[2]; EA.hy926, 100 μM
  Cell viability (%): 94.9 ± 3.3%
[3]
  Cell vaibility (%): 89.7 ± 2.3%
Sprague-Dawley rats; 25 μM (so in the source)
  Bleeding time: 7.3 ± 0.7 min
Sprague-Dawley rats; 100 μM (so in the source)
  Bleeding time: 6.2 ± 0.6 min

## O=C(c1cc(O)ccc1O)N1CCc2sccc2C1 [Example 20, (6,7-Dihydrothieno[3,2-c]pyridin-5(4H)-yl)(2,5-dihydroxyphenyl)methanone]
[1]
  inhibited shear stress-induced platelet aggregation in WP: in a dose-dependent manner
  inhibition at 10 µM: 18 ± 1.5%
  inhibition at 25 µM: 42 ± 4.2%
  inhibition at 50 µM: 46 ± 2.1%
Human platelets; 25 μM
  LDH leakage (%, Mean ± SEM): 4.1 ± 0.7%
Human platelets; 100 μM
  LDH leakage (%, Mean ± SEM): 5.2 ± 0.4%
Human platelets; 250 μM
  LDH leakage (%, Mean ± SEM): 3.5 ± 1.2%
[2]; EA.hy926, 25 μM
  Cell viability (%): 99.7 ± 3.2%
[2]; EA.hy926, 100 μM
  Cell viability (%): 97.7 ± 2.2%
[3]
  Cell vaibility (%): 87.7 ± 2.6%
Sprague-Dawley rats; 25 μM (so in the source)
  Bleeding time: 6.7 ± 0.6 min
Sprague-Dawley rats; 100 μM (so in the source)
  Bleeding time: 7.7 ± 0.4 min

## O=C(c1cc(O)ccc1O)N1CCC(c2noc3ccc(F)cc23)CC1 [Example 23, (2,5-Dihydroxyphenyl)(4-(5-fluorobenzo[d]isoxazol-3-yl)piperidin-1-yl)methanone]
Human platelets; 25 μM
  LDH leakage (%, Mean ± SEM): 1.8 ± 0.1%
Human platelets; 100 μM
  LDH leakage (%, Mean ± SEM): 2.2 ± 1.3%
Human platelets; 250 μM
  LDH leakage (%, Mean ± SEM): 3.2 ± 0.5%
[2]; EA.hy926, 25 μM
  Cell viability (%): 104.3 ± 1.8%
[2]; EA.hy926, 100 μM
  Cell viability (%): 99.9 ± 1.9%
[3]
  Cell vaibility (%): 82.7 ± 5.5%
